Data on one compound can be found in publication PMC5218480 (PLoS ONE, 2017).

For this experiment, the system named is MV-4-11 cells. The experiment is described as follows: Gene expression microarray analysis (Affymetrix PrimeView) and GSEA. In kind it is cell-based, human. The arrangement: RFU PODN (11730768_x_at) / Fold change /veh PODN (11730768_x_at) / RFU LINC00158 (11744669_a_at) / Fold change /veh LINC00158 (11744669_a_at) / RFU DUSP10 (11751237_a_at) / Fold change /veh DUSP10 (11751237_a_at) / RFU ID3 (11757404_x_at) / Fold change /veh ID3 (11757404_x_at) / RFU PLEKHG5 (11737974_s_at) / Fold change /veh PLEKHG5 (11737974_s_at) / RFU LRRC4B (11730491_at) / Fold change /veh LRRC4B (11730491_at) / RFU GIMAP4 (11747438_a_at) / Fold change /veh GIMAP4 (11747438_a_at) / RFU KRT8 (11758183_x_at) / Fold change /veh KRT8 (11758183_x_at) / RFU CNN1 (11734310_a_at) / Fold change /veh CNN1 (11734310_a_at) / RFU VPS37D (11726825_at) / Fold change /veh VPS37D (11726825_at) / RFU C10orf10 (11716522_x_at) / Fold change /veh C10orf10 (11716522_x_at) / RFU KIR2DL2 /// KIR2DL4 /// KIR2DL5A /// KIR2DL5B /// KIR2DS1 /// KIR2DS2 /// KIR2DS3 /// KIR2DS4 /// KIR3DL3 /// KIR3DL3 /// KIR3DS1 (11738374_at) / Fold change /veh KIR2DL2 /// KIR2DL4 /// KIR2DL5A /// KIR2DL5B /// KIR2DS1 /// KIR2DS2 /// KIR2DS3 /// KIR2DS4 /// KIR3DL3 /// KIR3DL3 /// KIR3DS1 (11738374_at) / RFU C1QL1 (11718748_at) / Fold change /veh C1QL1 (11718748_at) / RFU TMPRSS4 (11747572_a_at) / Fold change /veh TMPRSS4 (11747572_a_at) / RFU HAMP (11756126_x_at) / Fold change /veh HAMP (11756126_x_at) / RFU RNFT2 (11725882_a_at) / Fold change /veh RNFT2 (11725882_a_at) / RFU NR4A2 (11747474_a_at) / Fold change /veh NR4A2 (11747474_a_at) / RFU ABCC12 (11746883_a_at) / Fold change /veh ABCC12 (11746883_a_at) / RFU TMEM136 (11760407_x_at) / Fold change /veh TMEM136 (11760407_x_at) / RFU CLDN22 /// WWC2 (11732394_at) / Fold change /veh CLDN22 /// WWC2 (11732394_at) / RFU HLA-DPB1 (11760878_x_at) / Fold change /veh HLA-DPB1 (11760878_x_at) / RFU SPINT1 (11716480_a_at) / Fold change /veh SPINT1 (11716480_a_at) / RFU GAP43 (11754022_s_at) / Fold change /veh GAP43 (11754022_s_at) / RFU A4GNT (11735810_at) / Fold change /veh A4GNT (11735810_at) / RFU PRB3 (11715151_x_at) / Fold change /veh PRB3 (11715151_x_at) / RFU TUBB4B (11761932_at) / Fold change /veh TUBB4B (11761932_at) / RFU CAPN14 (11732068_a_at) / Fold change /veh CAPN14 (11732068_a_at) / RFU TMCC2 (11721928_a_at) / Fold change /veh TMCC2 (11721928_a_at) / RFU IRGQ (11745062_a_at) / Fold change /veh IRGQ (11745062_a_at) / RFU FAM174B (11720279_a_at) / Fold change /veh FAM174B (11720279_a_at) / RFU TMPRSS4 (11748680_a_at) / Fold change /veh TMPRSS4 (11748680_a_at) / RFU FAM212B (11763350_a_at) / Fold change /veh FAM212B (11763350_a_at) / RFU PLEKHG5 (11743358_a_at) / Fold change /veh PLEKHG5 (11743358_a_at) / RFU ZSCAN30 (11745921_a_at) / Fold change /veh ZSCAN30 (11745921_a_at) / RFU CMKLR1 (11741424_a_at) / Fold change /veh CMKLR1 (11741424_a_at) / RFU LOC101060620 /// MAPK8IP1 (11723275_at) / Fold change /veh LOC101060620 /// MAPK8IP1 (11723275_at) / RFU SPTSSB (11747773_x_at) / Fold change /veh SPTSSB (11747773_x_at) / RFU PRSS12 (11739890_at) / Fold change /veh PRSS12 (11739890_at) / RFU BIN1 (11741810_x_at) / Fold change /veh BIN1 (11741810_x_at) / RFU WNT11 (11732464_a_at) / Fold change /veh WNT11 (11732464_a_at) / RFU C10orf10 (11716521_a_at) / Fold change /veh C10orf10 (11716521_a_at) / RFU C5orf56 (11738089_at) / Fold change /veh C5orf56 (11738089_at) / RFU CYB561 (11721691_x_at) / Fold change /veh CYB561 (11721691_x_at) / RFU ANKRD19P (11752326_a_at) / Fold change /veh ANKRD19P (11752326_a_at) / RFU OR2T12 /// OR2T33 /// OR2T8 (11738714_s_at) / Fold change /veh OR2T12 /// OR2T33 /// OR2T8 (11738714_s_at) / RFU VCAN (11748164_a_at) / Fold change /veh VCAN (11748164_a_at) / RFU JSRP1 (11732532_at) / Fold change /veh JSRP1 (11732532_at) / RFU KRTAP10-11 (11738290_x_at) / Fold change /veh KRTAP10-11 (11738290_x_at) / RFU MYO3A (11730013_a_at) / Fold change /veh MYO3A (11730013_a_at) / RFU EBF3 (11725865_a_at) / Fold change /veh EBF3 (11725865_a_at) / RFU CAMK2N1 (11719241_x_at) / Fold change /veh CAMK2N1 (11719241_x_at) / RFU C5orf56 (11738088_a_at) / Fold change /veh C5orf56 (11738088_a_at) / RFU OLFML3 (11715873_a_at) / Fold change /veh OLFML3 (11715873_a_at) / RFU LOC100653217 /// NTM (11731650_a_at) / Fold change /veh LOC100653217 /// NTM (11731650_a_at) / RFU MAPK11 (11762145_a_at) / Fold change /veh MAPK11 (11762145_a_at) / RFU FIZ1 (11724087_x_at) / Fold change /veh FIZ1 (11724087_x_at) / RFU OASL (11726364_x_at) / Fold change /veh OASL (11726364_x_at) / RFU SOX15 (11748057_x_at) / Fold change /veh SOX15 (11748057_x_at) / RFU CD79A (11719716_a_at) / Fold change /veh CD79A (11719716_a_at) / RFU HIST1H1D (11736915_at) / Fold change /veh HIST1H1D (11736915_at) / RFU CASKIN2 (11723855_a_at) / Fold change /veh CASKIN2 (11723855_a_at) / RFU LOC730098 (11760151_x_at) / Fold change /veh LOC730098 (11760151_x_at) / RFU OR4N2 (11742367_at) / Fold change /veh OR4N2 (11742367_at) / RFU PRRT2 (11749266_a_at) / Fold change /veh PRRT2 (11749266_a_at) / RFU SNX32 (11753110_a_at) / Fold change /veh SNX32 (11753110_a_at) / RFU CDHR5 (11726645_a_at) / Fold change /veh CDHR5 (11726645_a_at) / RFU RCAN1 (11760418_a_at) / Fold change /veh RCAN1 (11760418_a_at) / RFU FAM167A (11723789_a_at) / Fold change /veh FAM167A (11723789_a_at) / RFU FAM26E (11764081_at) / Fold change /veh FAM26E (11764081_at) / RFU ISYNA1 (11749810_s_at) / Fold change /veh ISYNA1 (11749810_s_at) / RFU ACY1 (11761880_at) / Fold change /veh ACY1 (11761880_at) / RFU 11764098_at / Fold change /veh 11764098_at / RFU SAMD14 (11745864_x_at) / Fold change /veh SAMD14 (11745864_x_at) / RFU NPB (11741838_a_at) / Fold change /veh NPB (11741838_a_at) / RFU TMPRSS6 (11731388_a_at) / Fold change /veh TMPRSS6 (11731388_a_at) / RFU KRTAP10-2 (11738614_at) / Fold change /veh KRTAP10-2 (11738614_at) / RFU ARHGAP8 /// PRR5-ARHGAP8 (11727945_x_at) / Fold change /veh ARHGAP8 /// PRR5-ARHGAP8 (11727945_x_at) / RFU KRTAP5-7 /// NADSYN1 (11734609_at) / Fold change /veh KRTAP5-7 /// NADSYN1 (11734609_at) / RFU RASL12 (11751679_a_at) / Fold change /veh RASL12 (11751679_a_at) / RFU CDKN2B (11736163_a_at) / Fold change /veh CDKN2B (11736163_a_at) / RFU PRF1 (11729649_at) / Fold change /veh PRF1 (11729649_at) / RFU, ZNF638 /// ZNF638-IT1 / Fold change vs veh, ZNF638 /// ZNF638-IT1 / RFU, PANK3 / Fold change vs veh, PANK3 / RFU, SH3YL1 / Fold change vs veh, SH3YL1 / RFU, ZEB2 / Fold change vs veh, ZEB2 / RFU, NRIP1 / Fold change vs veh, NRIP1 / RFU, PTTG1IP / Fold change vs veh, PTTG1IP / RFU, CAPN2 / Fold change vs veh, CAPN2 / RFU, MED14 / Fold change vs veh, MED14 / RFU, SNORA58 / Fold change vs veh, SNORA58 / RFU, C1orf63 / Fold change vs veh, C1orf63 / RFU, LRRFIP1 / Fold change vs veh, LRRFIP1 / RFU, NDUFAF7 / Fold change vs veh, NDUFAF7 / RFU, SLC12A2 / Fold change vs veh, SLC12A2 / RFU, IBTK / Fold change vs veh, IBTK / RFU, ESF1 / Fold change vs veh, ESF1 / Fold change vs veh, TMEM50B / RFU, TAOK1 / Fold change vs veh, TAOK1 / RFU, ACBD3 / Fold change vs veh, ACBD3 / RFU, TMA16 / Fold change vs veh, TMA16 / RFU, RWDD3 / Fold change vs veh, RWDD3 / RFU, BCAT1 / Fold change vs veh, BCAT1 / RFU, EDEM3 / Fold change vs veh, EDEM3 / RFU, TMEM33 / Fold change vs veh, TMEM33 / RFU, WDR75 / Fold change vs veh, WDR75 / RFU, AHCTF1 / Fold change vs veh, AHCTF1 / RFU, TFRC / Fold change vs veh, TFRC / RFU, ZDHHC17 / Fold change vs veh, ZDHHC17 / RFU, NOM1 / Fold change vs veh, NOM1 / RFU, ARL8B / Fold change vs veh, ARL8B / RFU, ZBTB11 / Fold change vs veh, ZBTB11 / RFU, TAMM41 / Fold change vs veh, TAMM41 / RFU, KIAA1704 /// LOC100996395 / Fold change vs veh, KIAA1704 /// LOC100996395 / RFU, ING1 / Fold change vs veh, ING1 / RFU, TRMT61B / Fold change vs veh, TRMT61B / RFU, FUBP3 / Fold change vs veh, FUBP3 / RFU, TP53 / Fold change vs veh, TP53 / RFU, TNKS2 / Fold change vs veh, TNKS2 / RFU, ZFP14 / Fold change vs veh, ZFP14 / RFU, ACTR2 / Fold change vs veh, ACTR2 / RFU, PPP3R1 / Fold change vs veh, PPP3R1 / RFU, PIK3R1 / Fold change vs veh, PIK3R1 / RFU, HNRNPA1 / Fold change vs veh, HNRNPA1 / RFU, RNF170 / Fold change vs veh, RNF170 / RFU, ZNF28 / Fold change vs veh, ZNF28 / RFU, RNGTT / Fold change vs veh, RNGTT / RFU, OGT / Fold change vs veh, OGT / RFU, BRD1 / Fold change vs veh, BRD1 / RFU, MARS / Fold change vs veh, MARS / RFU, ZNF655 / Fold change vs veh, ZNF655 / RFU, FAHD1 / Fold change vs veh, FAHD1 / RFU, BDP1 / Fold change vs veh, BDP1 / RFU, LRRCC1 / Fold change vs veh, LRRCC1 / RFU, ARID1A / Fold change vs veh, ARID1A / RFU, ZNF146 / Fold change vs veh, ZNF146 / RFU, ZNF330 / Fold change vs veh, ZNF330 / RFU, GPN3 / Fold change vs veh, GPN3 / RFU, C9orf123 / Fold change vs veh, C9orf123 / RFU, N4BP2L2 / Fold change vs veh, N4BP2L2 / RFU, ARFIP1 / Fold change vs veh, ARFIP1 / RFU, FAM179B / Fold change vs veh, FAM179B / RFU, BCL10 / Fold change vs veh, BCL10 / RFU, UHRF1BP1L / Fold change vs veh, UHRF1BP1L / RFU, BET1 / Fold change vs veh, BET1 / RFU, CNOT2 / Fold change vs veh, CNOT2 / RFU, ZNF268 / Fold change vs veh, ZNF268 / Fold change vs veh, ZNF507 / RFU, DGCR2 / Fold change vs veh, DGCR2 / RFU, WDSUB1 / Fold change vs veh, WDSUB1 / Fold change vs veh, HSP90B1 /// MIR3652 / RFU, ADSS / Fold change vs veh, ADSS / RFU, GK / Fold change vs veh, GK / RFU, ZNF148 / Fold change vs veh, ZNF148 / RFU, TAF9 / Fold change vs veh, TAF9 / RFU, SLC1A5 / Fold change vs veh, SLC1A5 / RFU, SLMO2 / Fold change vs veh, SLMO2 / RFU, ABCC4 / Fold change vs veh, ABCC4 / RFU, LOC101060439 /// RAP1B / Fold change vs veh, LOC101060439 /// RAP1B / RFU, RFX7 / Fold change vs veh, RFX7 / RFU, GTPBP10 / Fold change vs veh, GTPBP10 / RFU, CNEP1R1 / Fold change vs veh, CNEP1R1 / RFU, BIVM-ERCC5 /// ERCC5 / Fold change vs veh, BIVM-ERCC5 /// ERCC5 / RFU, ILF3 / Fold change vs veh, ILF3 / RFU 11762660_at / Fold change /veh 11762660_at / RFU VCAN (11757783_s_at) / Fold change /veh VCAN (11757783_s_at) / RFU DDX43 (11728927_at) / Fold change /veh DDX43 (11728927_at) / RFU KRT8 (11758188_x_at) / Fold change /veh KRT8 (11758188_x_at) / RFU NKD1 (11759106_at) / Fold change /veh NKD1 (11759106_at) / RFU SRD5A1 (11742802_a_at) / Fold change /veh SRD5A1 (11742802_a_at) / RFU TPSAB1 /// TPSB2 (11721975_s_at) / Fold change /veh TPSAB1 /// TPSB2 (11721975_s_at) / RFU GSTM3 (11746129_a_at) / Fold change /veh GSTM3 (11746129_a_at) / RFU IL23R (11737362_x_at) / Fold change /veh IL23R (11737362_x_at) / RFU TMEM51 (11727254_a_at) / Fold change /veh TMEM51 (11727254_a_at) / RFU PIWIL2 (11732686_x_at) / Fold change /veh PIWIL2 (11732686_x_at) / RFU ORM1 (11744905_x_at) / Fold change /veh ORM1 (11744905_x_at) / RFU CCDC152 (11743942_at) / Fold change /veh CCDC152 (11743942_at) / RFU ECM1 (11717891_a_at) / Fold change /veh ECM1 (11717891_a_at) / RFU IL23R (11748794_a_at) / Fold change /veh IL23R (11748794_a_at) / RFU TNFAIP8L3 (11732012_x_at) / Fold change /veh TNFAIP8L3 (11732012_x_at) / RFU MBOAT4 (11741988_at) / Fold change /veh MBOAT4 (11741988_at) / RFU 11764193_at / Fold change /veh 11764193_at / RFU TMEM53 (11763286_at) / Fold change /veh TMEM53 (11763286_at) / RFU MAGEB2 (11727129_at) / Fold change /veh MAGEB2 (11727129_at) / RFU TMEM200A (11744735_a_at) / Fold change /veh TMEM200A (11744735_a_at) / RFU CCDC152 (11751479_a_at) / Fold change /veh CCDC152 (11751479_a_at) / RFU FAM211A (11726209_a_at) / Fold change /veh FAM211A (11726209_a_at) / RFU RGS16 (11746705_a_at) / Fold change /veh RGS16 (11746705_a_at) / RFU VCAN (11755009_s_at) / Fold change /veh VCAN (11755009_s_at) / RFU RHOB (11743442_s_at) / Fold change /veh RHOB (11743442_s_at) / RFU RGS16 (11720943_a_at) / Fold change /veh RGS16 (11720943_a_at) / RFU RGS16 (11720944_at) / Fold change /veh RGS16 (11720944_at) / RFU, VPS4B / Fold change vs veh, VPS4B / RFU, CREB1 / Fold change vs veh, CREB1 / RFU, DNAJC13 / Fold change vs veh, DNAJC13 / RFU, GNAQ / Fold change vs veh, GNAQ / RFU, CDK5R1 / Fold change vs veh, CDK5R1 / RFU, ZRANB3 / Fold change vs veh, ZRANB3 / RFU, CUL4A / Fold change vs veh, CUL4A / RFU, CCNY / Fold change vs veh, CCNY / RFU, UFL1 / Fold change vs veh, UFL1 / RFU, COG3 / Fold change vs veh, COG3 / RFU, DIAPH2 / Fold change vs veh, DIAPH2 / RFU, SKA2 / Fold change vs veh, SKA2 / RFU, AFF3 / Fold change vs veh, AFF3 / RFU, LMF1 / Fold change vs veh, LMF1 / RFU, IPO11 / Fold change vs veh, IPO11 / RFU, DFFB / Fold change vs veh, DFFB / RFU, FOXP1 / Fold change vs veh, FOXP1 / RFU, CARD8 / Fold change vs veh, CARD8 / RFU, STRN3 / Fold change vs veh, STRN3 / RFU, ADK / Fold change vs veh, ADK / RFU, RASSF2 / Fold change vs veh, RASSF2 / RFU, WIPF1 / Fold change vs veh, WIPF1 / RFU, LARP1B / Fold change vs veh, LARP1B / RFU, RASA1 / Fold change vs veh, RASA1 / RFU, RB1 / Fold change vs veh, RB1 / RFU, PPFIA1 / Fold change vs veh, PPFIA1 / RFU, MAT2A / Fold change vs veh, MAT2A / RFU, CCT5 / Fold change vs veh, CCT5 / RFU, WDR92 / Fold change vs veh, WDR92 / RFU, CUX1 / Fold change vs veh, CUX1 / RFU, TTC7A / Fold change vs veh, TTC7A / RFU, TMEM135 / Fold change vs veh, TMEM135 / RFU, DEPTOR / Fold change vs veh, DEPTOR / RFU, CPM / Fold change vs veh, CPM / RFU, DNAJB6 / Fold change vs veh, DNAJB6 / RFU, CACNA2D3 / Fold change vs veh, CACNA2D3 / RFU, DTX4 / Fold change vs veh, DTX4 / RFU, TFCP2 / Fold change vs veh, TFCP2 / RFU, GMCL1 /// GMCL1P1 / Fold change vs veh, GMCL1 /// GMCL1P1 / RFU, AEBP2 / Fold change vs veh, AEBP2 / RFU, SNHG1 /// SNORD22 /// SNORD25 /// SNORD26 /// SNORD27 /// SNORD28 /// SNORD29 /// SNORD31 / Fold change vs veh, SNHG1 /// SNORD22 /// SNORD25 /// SNORD26 /// SNORD27 /// SNORD28 /// SNORD29 /// SNORD31 / Fold change (Aza/veh), C12orf56 (ProbeSet 11735607_a_at) / Fold change (ACY-1035/veh), C12orf56 (ProbeSet 11735607_a_at) / Fold change (Aza/veh), FGFR1OP (ProbeSet 11751329_s_at) / Fold change (ACY-1035/veh), FGFR1OP (ProbeSet 11751329_s_at) / Fold change (Aza/veh), VPS36 (ProbeSet 11739960_a_at) / Fold change (ACY-1035/veh), VPS36 (ProbeSet 11739960_a_at) / RFU SYPL1 (11715823_x_at) / Fold change /veh SYPL1 (11715823_x_at) / RFU IGFBP7 (11715501_s_at) / Fold change /veh IGFBP7 (11715501_s_at) / RFU REEP3 (11722064_at) / Fold change /veh REEP3 (11722064_at) / RFU IGLL1 (11728026_x_at) / Fold change /veh IGLL1 (11728026_x_at): dose or concentration left out as unconfirmed. Conditions: ProbeSet 11747937_a_at; LIST D.

With `Nc1ccc(-c2cccs2)cc1NC(=O)c1ccc2c(c1)cc(C1CC1)n2CCN1CCOCC1` [ACY-1035], the “Fold change vs veh, DNAJB6” value is reported as 0.86.
